Measurements taken from ChEMBL document CHEMBL1201862, “PubChem BioAssay data set” (2004).
Calls of active or inactive are those of the source.

Tests used:
[1] = HeLa 2N DNA content increase, dose response, cell-based, IC50 (AID 1117349); format: functional
[2] = HeLa 4N DNA content increase, dose response, cell-based, IC50 (AID 1117351); format: functional
[3] = RKO cell viability reduction, dose response, CellTiter-Glo luminescence (AID 1117322); format: functional
[4] = cytotoxicity toward Colo320 cells – cell-based, CellTiter-Glo luminescence, IC50, dose response (AID 1117334); format: functional; conditions: COLO 320
[5] = CellTiter-Glo luminescent dose response of DLD-1 viability loss (AID 1117352); format: functional
[6] = SNU-C1 cell viability reduction, dose response, CellTiter-Glo luminescence (AID 1117323); format: functional, cell-based
[7] = Concentration-dependent survival of SW480 colon cancer line, luminescence detection with CellTiter-Glo, half-maximal inhibitory concentration (AID 1117338); format: functional
[8] = cytotoxicity toward HT-29 cells – cell-based, CellTiter-Glo luminescence, IC50, dose response (AID 1117330); format: functional
[9] = HCT116 cell viability decrease, GSK3B pretreatment – CellTiter-Glo, IC50, dose response (AID 1117339); format: functional; conditions: HCT-116
[10] = cytotoxicity toward HCT116 cells – cell-based, CellTiter-Glo luminescence, IC50, dose response (AID 1117332); format: functional; conditions: HCT-116
[11] = inhibitors of clade B AD8 Env fusion, dose response, cell-based, cherry-pick (AID 652062); format: functional;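 also: luciferase signal from cell-cell fusion driven by HIV-1 clade B AD8 Env; potency is for inhibitors of fusion seen as a drop in luminescence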
[12] = inhibitors of HIV Env-driven cell fusion, dose response, cherry-pick (AID 652057); format: functional, cell-based
[13] = cytotoxicity in COV434 cells, dose response, cytotoxicity control for PAX8 inhibitor project, cell-based, plate reader, dry powder, SA7 (AID 743145); format: functional
[14] = cytotoxicity dependent on PAX8, dose response, cell-based, plate reader, dry powder (AID 743049); format: functional
[15] = PAX2 cell-based inhibition, dose response, selectivity assay for PAX8 inhibitor project, plate reader, dry powder samples (AID 743048); format: functional;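 also: HEK293 cells carrying a WT1 promoter luciferase reporter driven by expressed Pax2; potency is for inhibition of Pax2 driven reporter signal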
Paired box protein Pax-8 = Paired box protein Pax-8 (Homo sapiens, UniProt Q06710); assay: inhibitors of PAX8-driven TPO luciferase reporter, dose response, RMG-I cells, cherry-pick (AID 687027); format: functional, cell-based;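 also: luciferase reporter driven by Pax8 target thyroperoxidase promoter measured by SteadyGlo luminescence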
Sequence of Paired box protein Pax-8 (Q06710 whole entry): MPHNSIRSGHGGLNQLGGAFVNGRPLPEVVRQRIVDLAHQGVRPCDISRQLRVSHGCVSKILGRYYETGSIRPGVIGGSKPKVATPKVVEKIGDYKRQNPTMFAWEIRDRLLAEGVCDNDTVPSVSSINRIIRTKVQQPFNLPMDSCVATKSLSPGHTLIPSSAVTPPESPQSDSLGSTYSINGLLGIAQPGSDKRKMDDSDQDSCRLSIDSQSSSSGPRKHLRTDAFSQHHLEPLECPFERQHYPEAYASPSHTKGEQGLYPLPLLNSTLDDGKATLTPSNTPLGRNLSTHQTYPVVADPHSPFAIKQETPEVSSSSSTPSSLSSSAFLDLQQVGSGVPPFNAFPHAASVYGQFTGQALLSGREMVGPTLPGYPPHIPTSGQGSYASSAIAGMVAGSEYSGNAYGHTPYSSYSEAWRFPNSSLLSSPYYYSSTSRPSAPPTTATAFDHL

[16] = cytotoxicity in OV-90 ovarian cancer cells, dose response, PAX8 inhibitor project, cell-based, plate reader, dry powder, SA8 (AID 743149); format: functional
[17] = PAX5 activity inhibitors, dose response, selectivity assay for PAX8 inhibitor project, cell-based, plate reader, dry powder samples (AID 743047); format: functional;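 also: HEK293 cells carrying a Pax5 driven CD19 promoter luciferase reporter; potency of inhibitors that lower reporter luminescence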
[18] = cytotoxicity in OVCAR4 cells, dose response, cytotoxicity control for PAX8 inhibitor project, cell-based, plate reader, dry powder, SA11 (AID 743150); format: functional; conditions: OVCAR-4
[19] = inhibitors of Vif binding to APOBEC3G peptide, primary screen, biochemical, TR-FRET, GST-Vif 1-94, biotin-A3G peptide, dose response retest (AID 1117319); format: functional;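 also: TR-FRET signal of purified GST-Vif binding a biotinylated A3G peptide; inhibitors lower the FRET signal by blocking Vif and A3G binding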
[20] = human group III sPLA2 inhibitors, dose response, biochemical, QFRET, IC50 (AID 743457);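 also: green fluorescence rise as the enzyme cleaves BODIPY PC-A2 in liposomes; potency for inhibition of the enzyme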
cells = format: functional, cell-based; conditions: HEK-CNG
Galanin receptor type 3 = Galanin receptor type 3 (Homo sapiens, UniProt O60755); assay: Fluorescence-based cell-based primary high throughput dose response assay to identify antagonists of the Galanin Receptor 3 (GalR3).; format: functional
Sequence of Galanin receptor type 3 (O60755 whole entry): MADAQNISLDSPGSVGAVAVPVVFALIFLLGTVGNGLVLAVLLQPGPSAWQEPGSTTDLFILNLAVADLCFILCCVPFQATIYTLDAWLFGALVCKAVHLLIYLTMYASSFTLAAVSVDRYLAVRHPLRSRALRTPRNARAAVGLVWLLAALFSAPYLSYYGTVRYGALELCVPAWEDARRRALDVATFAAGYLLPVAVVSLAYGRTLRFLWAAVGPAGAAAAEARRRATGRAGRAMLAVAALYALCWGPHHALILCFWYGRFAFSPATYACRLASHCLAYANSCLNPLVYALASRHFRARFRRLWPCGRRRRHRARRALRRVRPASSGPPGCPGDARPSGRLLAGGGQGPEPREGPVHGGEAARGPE

[21] = molecular target: Glutathione-S-transferase (Schistosoma japonicum, UniProt Q26513); assay: biotin-GST/anti-GST TR-FRET signal inhibitors, dose response, artefact control for Vif-APOBEC3G degradation inhibitor project, biochemical (AID 1117362); format: functional
Sequence of Glutathione-S-transferase (Q26513 whole entry): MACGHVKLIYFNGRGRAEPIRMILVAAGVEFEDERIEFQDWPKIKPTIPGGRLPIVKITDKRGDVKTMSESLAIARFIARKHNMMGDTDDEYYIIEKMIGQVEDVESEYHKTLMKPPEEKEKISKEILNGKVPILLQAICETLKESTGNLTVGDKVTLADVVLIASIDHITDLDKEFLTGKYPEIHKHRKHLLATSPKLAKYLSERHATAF
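For EC50 in this document: target is galanin receptor GalR3 read with a cAMP biosensor in HEK293 cells.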

## NCCNc1ccc(NCCN)c2c1C(=O)c1ccncc1C2=O [PIXANTRONE]
[1]
  IC50: 0.042 µM (active)
[2]
  IC50: 0.0483 µM (active)

## C[C@H](O)CN(C)C
[3]
  IC50: > 20 µM (inactive)
[4]
  IC50: > 20 µM (inactive)
[5]
  IC50: > 20 µM (inactive)
[6]
  IC50: > 20 µM (inactive)
[7]
  IC50: > 20 µM (inactive)
[8]
  IC50: > 20 µM (inactive)
[9]
  IC50: > 20 µM (inactive)
[10]
  IC50: > 20 µM (inactive)

## N#C[C@@H]1[C@H](c2ccc(-c3ccccc3F)cc2)[C@@H](CO)N1C(=O)Cc1ccccc1
[11]
  AC50: 19.8 µM (active)
[12]
  AC50: 35 µM (active)
[13]
  AC50: > 70 µM (inactive)
[14]
  AC50: 20.3 µM (active)
[15]
  AC50: 23.8 µM (active)
Paired box protein Pax-8
  AC50: 17.3 µM (active)
[16]
  AC50: 56.2 µM (active)
[17]
  AC50: 26.2 µM (active)
[18]
  AC50: 30.4 µM (active)

## CCOc1ccc(N/C([S-])=C(/C(=O)c2ccc(C)c([N+](=O)[O-])c2)[n+]2ccccc2)cc1
[19]
  IC50: > 100 µM (active)

## CCCCCCCCCCCC[N+](C)(C)Cc1ccccc1
[3]
  IC50: 3.07 µM (active)
[4]
  IC50: 8.99 µM (inactive)
[5]
  IC50: 0.738 µM (active)
[1]
  IC50: > 10 µM (inactive)
[6]
  IC50: 0.02 µM (active)
[7]
  IC50: 7.95 µM (inactive)
[8]
  IC50: 0.465 µM (active)
[9]
  IC50: > 20 µM (inactive)
[2]
  IC50: > 10 µM (inactive)
[10]
  IC50: 1.96 µM (active)

## Cc1cccc(NN=C(S)Nc2c(C)cccc2C)c1
[20]
  IC50: > 122 µM (inactive)

## N#Cc1cc(-c2ccccc2)oc1NC(=O)c1ccco1
cells
  EC50: > 29.9 µM (inactive)
Galanin receptor type 3
  IC50: 8.23 µM (active)

## O=C(COC(=O)C12CC3CC(CC(Br)(C3)C1)C2)Nc1ccc2[nH]c(O)nc2c1
[19]
  IC50: > 100 µM (active)
[21]
  IC50: 73.5 µM (active)
